Experiment [1] relates to coneworm, Dioryctria spp. Conditions: systemic activity in pine; cited from earlier work.
The next experiment has as its system Cerambycid larvae. As to the kind of experiment: Bolt study (Example 1): cerambycid larval feeding in loblolly pine bolts cut after trunk injection. It counts as in vivo. Conditions: for reduction of cerambycid feeding damage: May. The method, then: (§1) Two 20-year-old, recently thinned loblolly pine plantations were selected on land owned by Temple-Inland Forest Products Corporation about 5 km south of Wells (Angelina County), Tex. Trees in one plantation were injected for use in a bolt study (Example 1). Trees in a 0.2 ha section of the second plantation were injected as part of a single-tree protection study (Example 2). A staging area also was set up in the second plantation where bolts from the first plantation were exposed to bark beetles and wood borers.
Seventy-five loblolly pine trees, Pinus taeda L., 15-20 cm diameter at breast height (DBH), were selected in March 2004. Each treatment was injected into four cardinal points about 0.3 m above the ground on each of 15 trees in April (16th-23rd) using the new Arborjet Tree IV™ microinfusion system (Arborjet, Inc. Woburn, Mass.). The treatments included: • 1) Emamectin benzoate (Denim®, 1.92% ai, Syngenta Crop Science)—Denim® was mixed 1:1 with methanol and applied at 18.6 ml solution per inch of tree diameter at breast height (DBH) (=0.2 g active per inch DBH). • 2) Check (untreated)
After 1 (May 24), 3 (July 19) and 5 (September) months post-injection, 5 trees of each treatment were felled and two 1.5 m long bolts were removed from the 3 m and 8 m heights of the bole. The bolts were transported to a nearby plantation that was recently thinned and contained fresh slash material. Each bolt was placed about 1 m apart on discarded, dry pine bolts to maximize surface area available for colonization as well as to discourage predation by ground and litter-inhabiting organisms. To facilitate timely bark beetle colonization, packets of bark beetle pheromones (racemic ipsdienol + lanerione combination, ipsenol or cis-verbenol; Phero Tech, Inc., Delta, BC, Canada) were attached separately to three 1 m stakes evenly spaced in the study area. Racemic ipsdienol and cis-verbenol were used with the second and third series of bolts deployed in July and September, respectively. The packets were removed after 2 weeks when signs of attacks (boring dust) were observed on most test bolts, signaling that naturally-produced pheromones were present.
Each series of bolts were retrieved about 3 weeks after deployment, after observing many cerambycid egg niches on the bark surface of most bolts. There was concern that if cerambycid larvae were allowed to develop too long, their feeding activity would obscure or obliterate the Ips galleries. Thus, each series of bolts were retrieved and stored temporarily in a TFS seedling cooler (˜45° F.) to slow cerambycid development until the bolts could be evaluated.
In the laboratory, two 10×50 cm strips (total=1000 cm^2) of bark were removed from each bolt. Several measurements were made relating to construction of nuptial chambers and egg galleries and development of brood: • 1) Number of unsuccessful attacks—penetration to phloem, but no egg galleries. • 2) Number of successful attacks—construction of nuptial chamber and at least one egg gallery extending from it. • 3) Number and lengths of egg galleries with brood galleries radiating from them. • 4) Number and lengths of egg galleries without brood galleries. • 5) Cerambycid activity, estimated by overlaying a 100 cm^2 grid over a portion of each bark strip and counting the number of squares overlapping area where cerambycid larvae had fed.
Treatment efficacy was determined by comparing Ips beetle attacks and egg gallery length and cerambycid feeding on treated and untreated bolts. The data were transformed by log10(x+1) to satisfy criteria for normality and homoscedasticity (Zar 1984) and analyzed by GLM and the Fishers Protected LSD test using the Statview statistical program.

Another experiment concerns cerambycids. Description: Single-tree protection study (Example 2): cerambycid attacks and larval feeding on standing loblolly pine. It counts as in vivo. Conditions: for Cerambycid Feeding Area: bolts cut after tree mortality or at the end of the trial. The method, then: as §1
Loblolly pine, 15-20 cm DBH, were selected in the second plantation in March 2004. Each treatment (the same as those used in Example 1) was injected into four cardinal points about 0.3 m above the ground on each of 6 trees in April (16th-23rd) using the Arborjet Tree IV™ system. After 5 weeks post-injection (May 28), frills were cut with a hatchet into the sapwood between the injection points near the base of the tree. A cellulose sponge was inserted into each cut and loaded with 10 ml of a 4:1 mix of sodium N-methyldithiocarbamate (MS) (Woodfume®; Osmose, Inc., Buffalo, N.Y.) plus dimethyl sulfoxide (DMSO) (Aldrich Chemical) (Roton 1987, Strom et al. 2004). This method reduces resin to near zero in 1-2 weeks. The intent was to stress the tree and make it susceptible to attack by bark beetles without killing it. […]
Three weeks after pheromone deployment (June 28), each tree was evaluated by marking a 30 cm section of bole at a height of 3 m. All visible Ips attacks and cerambycid egg niches were counted within the marked area. The number of trees with fading crowns also was recorded. Thereafter, the trees were evaluated weekly for crown fading. When mortality did occur, the trees were felled and two bolts taken and evaluated for attack success and gallery length as described in Example 1. […] Treatment efficacy was determined by comparing tree survival, beetle attacks and egg gallery length on treated and untreated bolts. As before, data were transformed and analyzed by GLM and the Fisher's Protected LSD test using the Statview statistical program.

As for “4″-deoxy-4″-N-methylamino avermectin B1a/B1b [Emamectin]”, the efficacy against coneworm result in experiment [1] was “highly effective”. The “Percent Phloem Area Consumed by Larvae” value with Cerambycid larvae (1 Month Post Injection (May), bolt height 3 m) was 2.2 a %; with Cerambycid larvae (1 Month Post Injection (May), bolt height 8 m), 0.0 a %; in the experiment with Cerambycid larvae (3 Months Post Injection (July), bolt height 3 m), 0.0 a %; with Cerambycid larvae (3 Months Post Injection (July), bolt height 8 m), 0.0 a %; in the experiment on Cerambycid larvae (5 Months Post Injection (September), bolt height 3 m) it was 0.0 a %; in the experiment on Cerambycid larvae (5 Months Post Injection (September), bolt height 8 m), 0.0 a %. Besides, the “cerambycid larval feeding or development” value in the experiment on Cerambycid larvae (July and September series, bolts from 3 m) is on record as “no larval feeding or development”. The figures for the “reduction of cerambycid feeding damage” value in the experiment on Cerambycid larvae (bolts from 3 m) and in the experiment on Cerambycid larvae (bolts from 8 m) were 93% and 100%, respectively. Also, the “Cerambycid Feeding Area” value in the experiment with cerambycids (bolt height 3 m) and in the experiment on cerambycids (bolt height 8 m) was 0.0 a in each case. In the experiment with cerambycids (standing loblolly pine, after 24 days), the “Mean # of Attacks/0.3 Bole Section at 3 m after 24 days, Cerambycid” value worked out at 0.8 a.

Values taken from US8633167B2, “Method for the protection of trees” (Syngenta Crop Protection LLC, priority 2006, dated 2014).
